Measured values: ChEMBL document CHEMBL1268971, “4,5-Dihydro-1H-pyrazolo[4,3-h]quinazolines as potent and selective Polo-like kinase 1 (PLK1) inhibitors” (Bioorg Med Chem Lett, 2010)
Activity calls are given as the source filed them. No cut-off for these calls is given here.

How the values were obtained:
PANC-1 = test: Antiproliferative activity against human PANC1 cells after 72 hrs by CellTiter-Glo assay; type: functional, cell-based; conditions: PANC-1, 72 h
A2780 [1] = test: Induction of apoptosis in human A2780 cells assessed as induction of PARP cleavage at 0.005 to 0.5 uM after 24 hrs
[2] = Terminal half life in CD1 mouse at 10 mg/kg, po administered as single dose by LC/MS/MS analysis; type: ADME, organism-based; design: dose 10 mg/kg, route oral; conditions: in vivo, read-out: beta t1/2 (converted)
[3] = Antiproliferative activity against human A2780/ADR cells after 72 hrs by CellTiter-Glo assay; type: functional, cell-based
Mus musculus [4] = test: Toxicity in CD1 mouse xenografted with human HCT116 cells assessed as reversible body weight loss at 30 mg/kg, iv BID administered on day 1, 2 post-implantation in weekly schedule of 3 cycles measured on day 32; conditions: in vivo
[5] = target: Serine/threonine-protein kinase PLK3 (Homo sapiens, UniProt Q9H4B4); test: Inhibition of PLK3
Chain of Serine/threonine-protein kinase PLK3 (Q9H4B4 whole entry): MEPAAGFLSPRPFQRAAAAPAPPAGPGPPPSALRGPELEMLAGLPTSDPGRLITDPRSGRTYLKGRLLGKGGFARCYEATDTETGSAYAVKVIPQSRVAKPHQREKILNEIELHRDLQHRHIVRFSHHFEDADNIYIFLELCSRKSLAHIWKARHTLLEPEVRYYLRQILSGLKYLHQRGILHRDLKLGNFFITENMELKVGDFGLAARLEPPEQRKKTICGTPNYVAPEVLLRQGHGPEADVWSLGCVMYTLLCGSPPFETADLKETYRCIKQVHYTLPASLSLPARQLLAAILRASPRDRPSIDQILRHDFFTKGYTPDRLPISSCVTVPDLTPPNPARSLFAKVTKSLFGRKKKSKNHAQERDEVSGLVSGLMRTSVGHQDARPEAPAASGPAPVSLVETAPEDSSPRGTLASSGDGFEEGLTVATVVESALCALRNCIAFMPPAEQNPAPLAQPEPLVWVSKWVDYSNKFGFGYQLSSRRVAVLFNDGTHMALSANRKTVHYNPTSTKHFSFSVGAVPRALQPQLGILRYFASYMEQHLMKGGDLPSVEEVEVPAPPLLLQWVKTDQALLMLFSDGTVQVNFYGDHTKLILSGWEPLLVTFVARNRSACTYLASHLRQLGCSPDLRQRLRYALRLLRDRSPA

Mus musculus [6] = test: Toxicity in CD1 mouse xenografted with human HCT116 cells assessed as reversible body weight loss at 60 mg/kg, po daily administered on day 1, 2, 3 post-implantation in weekly schedule of 2 cycles; conditions: in vivo
Mus musculus [7] = test: Toxicity in CD1 mouse xenografted with human A2780 cells assessed as reversible body weight loss at 30 mg/kg, iv BID administered on day 1, 2, 3 post-implantation measured on day 12; type: organism-based; design: dose 30 mg/kg, route intravenous; conditions: in vivo
[8] = target: ALK tyrosine kinase receptor (Homo sapiens, UniProt Q9UM73); test: Inhibition of ALK
Chain of ALK tyrosine kinase receptor (Q9UM73 whole entry): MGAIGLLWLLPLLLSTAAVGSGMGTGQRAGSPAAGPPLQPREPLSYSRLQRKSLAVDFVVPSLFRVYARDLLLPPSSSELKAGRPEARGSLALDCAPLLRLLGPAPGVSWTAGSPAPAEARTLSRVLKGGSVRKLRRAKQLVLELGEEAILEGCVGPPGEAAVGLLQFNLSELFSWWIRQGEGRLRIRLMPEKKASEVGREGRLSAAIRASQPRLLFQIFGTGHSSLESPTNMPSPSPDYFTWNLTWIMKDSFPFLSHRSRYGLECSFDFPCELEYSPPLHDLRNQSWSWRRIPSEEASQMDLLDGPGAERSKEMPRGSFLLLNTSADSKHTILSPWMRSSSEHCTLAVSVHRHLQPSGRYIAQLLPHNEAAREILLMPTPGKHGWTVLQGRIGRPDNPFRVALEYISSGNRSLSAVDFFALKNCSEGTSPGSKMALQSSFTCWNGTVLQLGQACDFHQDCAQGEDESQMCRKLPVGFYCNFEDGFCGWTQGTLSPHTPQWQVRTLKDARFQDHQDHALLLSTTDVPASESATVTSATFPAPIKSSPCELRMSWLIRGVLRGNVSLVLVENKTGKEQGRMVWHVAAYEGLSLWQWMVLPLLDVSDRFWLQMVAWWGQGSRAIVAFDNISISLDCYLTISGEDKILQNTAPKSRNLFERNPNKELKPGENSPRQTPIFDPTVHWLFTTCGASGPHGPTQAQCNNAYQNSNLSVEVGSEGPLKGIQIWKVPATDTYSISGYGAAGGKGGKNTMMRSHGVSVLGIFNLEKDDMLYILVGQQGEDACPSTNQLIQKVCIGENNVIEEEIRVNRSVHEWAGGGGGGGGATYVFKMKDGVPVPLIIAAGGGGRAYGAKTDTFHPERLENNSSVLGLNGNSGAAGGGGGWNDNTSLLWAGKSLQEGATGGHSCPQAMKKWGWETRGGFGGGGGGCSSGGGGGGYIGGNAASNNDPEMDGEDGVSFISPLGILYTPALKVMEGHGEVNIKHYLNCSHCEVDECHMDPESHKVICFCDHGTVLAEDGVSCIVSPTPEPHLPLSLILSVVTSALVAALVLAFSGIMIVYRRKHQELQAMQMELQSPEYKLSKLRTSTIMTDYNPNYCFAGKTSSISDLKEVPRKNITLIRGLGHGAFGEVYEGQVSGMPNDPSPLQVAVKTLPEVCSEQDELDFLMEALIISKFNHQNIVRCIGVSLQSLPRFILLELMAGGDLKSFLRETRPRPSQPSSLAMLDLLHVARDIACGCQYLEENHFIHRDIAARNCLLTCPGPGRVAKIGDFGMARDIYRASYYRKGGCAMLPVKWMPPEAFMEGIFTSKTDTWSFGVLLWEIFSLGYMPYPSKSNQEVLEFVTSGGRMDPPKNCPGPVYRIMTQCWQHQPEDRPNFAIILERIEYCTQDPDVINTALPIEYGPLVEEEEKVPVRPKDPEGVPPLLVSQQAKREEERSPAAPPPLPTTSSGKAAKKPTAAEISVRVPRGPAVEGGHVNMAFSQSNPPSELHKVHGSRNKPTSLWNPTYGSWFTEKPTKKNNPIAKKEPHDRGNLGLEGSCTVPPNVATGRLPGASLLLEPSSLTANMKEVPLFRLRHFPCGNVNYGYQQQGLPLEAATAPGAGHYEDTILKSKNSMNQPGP

[9] = Inhibition of casein kinase 2
[10] = Clearance in CD1 mouse at 10 mg/kg, iv administered as single dose by LC/MS/MS analysis; type: ADME, organism-based; design: dose 10 mg/kg, route intravenous; conditions: in vivo
[11] = target: Serine/threonine-protein kinase Nek6 (Homo sapiens, UniProt Q9HC98); test: Inhibition of NEK6
Chain of Serine/threonine-protein kinase Nek6 (Q9HC98 whole entry): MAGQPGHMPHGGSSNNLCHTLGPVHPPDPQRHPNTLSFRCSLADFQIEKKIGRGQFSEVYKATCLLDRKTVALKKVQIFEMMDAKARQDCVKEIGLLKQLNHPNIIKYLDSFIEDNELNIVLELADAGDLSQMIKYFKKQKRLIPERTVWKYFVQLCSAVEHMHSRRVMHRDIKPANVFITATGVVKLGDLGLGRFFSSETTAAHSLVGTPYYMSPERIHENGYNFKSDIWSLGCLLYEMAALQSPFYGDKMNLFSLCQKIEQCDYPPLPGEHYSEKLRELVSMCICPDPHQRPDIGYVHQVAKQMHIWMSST

[12] = Cmax in CD1 mouse at 10 mg/kg, po administered as single dose by LC/MS/MS analysis; type: ADME, organism-based; design: dose 10 mg/kg, route oral; conditions: in vivo
[13] = Volume of distribution at steady state in CD1 mouse at 10 mg/kg, iv administered as single dose by LC/MS/MS analysis; type: ADME, organism-based; design: dose 10 mg/kg, route intravenous; conditions: in vivo, read-out: Vdss
[14] = Permeability of the compound by PAMPA; type: ADME
[15] = Solubility of the compound at 105 Tween 80; type: physicochemical
HCT-116 [16] = test: Antitumor against human HCT116 cells xenografted in CD1 mouse assessed as tumor growth inhibition at 60 mg/kg, po daily administered on day 1, 2, 3 post-implantation for 2 cycles; conditions: HCT-116, po, read-out: TGI
A2780 [17] = test: cells; conditions: Homo sapiens, A2780, 72 h
A2780 [18] = test: Antitumor against human A2780 cells xenografted in CD1 mouse assessed as tumor growth inhibition at 30 mg/kg, iv BID administered on day 1, 2, 3 post-implantation measured on day 12; type: functional; conditions: read-out: TGI
[19] = target: T1, Receptor-type tyrosine-protein kinase FLT3 (Homo sapiens, UniProt P36888); test: Inhibition of FLT3
T1 sequence (P36888 whole entry): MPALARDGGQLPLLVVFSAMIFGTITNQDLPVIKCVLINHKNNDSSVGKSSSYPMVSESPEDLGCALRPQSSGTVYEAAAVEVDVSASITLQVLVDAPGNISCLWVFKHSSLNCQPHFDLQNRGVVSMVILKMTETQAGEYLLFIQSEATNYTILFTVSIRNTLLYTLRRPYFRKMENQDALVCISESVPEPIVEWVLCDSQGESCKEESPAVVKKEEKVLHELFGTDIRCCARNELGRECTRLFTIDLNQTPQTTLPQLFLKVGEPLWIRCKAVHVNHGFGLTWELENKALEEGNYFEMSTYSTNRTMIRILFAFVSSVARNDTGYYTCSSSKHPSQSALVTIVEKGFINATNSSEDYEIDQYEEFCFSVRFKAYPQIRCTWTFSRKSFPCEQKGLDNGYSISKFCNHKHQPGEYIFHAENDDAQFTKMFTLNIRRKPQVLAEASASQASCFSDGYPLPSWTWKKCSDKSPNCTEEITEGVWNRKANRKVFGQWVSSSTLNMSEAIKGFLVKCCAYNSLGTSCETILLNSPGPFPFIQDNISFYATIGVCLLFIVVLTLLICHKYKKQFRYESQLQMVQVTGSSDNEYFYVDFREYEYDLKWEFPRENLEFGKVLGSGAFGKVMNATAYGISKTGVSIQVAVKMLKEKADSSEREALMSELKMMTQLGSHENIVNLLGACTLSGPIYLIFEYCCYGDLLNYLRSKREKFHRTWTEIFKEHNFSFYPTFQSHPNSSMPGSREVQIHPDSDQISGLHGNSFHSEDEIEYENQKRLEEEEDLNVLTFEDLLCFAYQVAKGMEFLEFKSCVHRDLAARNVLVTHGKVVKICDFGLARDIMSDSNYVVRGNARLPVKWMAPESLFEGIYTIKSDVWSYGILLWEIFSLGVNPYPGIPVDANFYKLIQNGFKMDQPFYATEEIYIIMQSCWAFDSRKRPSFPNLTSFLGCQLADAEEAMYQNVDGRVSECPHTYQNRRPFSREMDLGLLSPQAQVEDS

HT-29 = test: Antiproliferative activity against human HT-29 cells after 72 hrs by CellTiter-Glo assay; type: functional, cell-based; conditions: HT-29, 72 h
HL-60 = test: Antiproliferative activity against human HL60 cells after 72 hrs by CellTiter-Glo assay; type: functional, cell-based; conditions: HL-60, 72 h
U2OS = test: Induction of cell cycle arrest in human U2OS cells assessed as pSer46 TCTP signal inhibition of after 1 hr by array scan assay; type: functional, cell-based
[20] = AUC (0 to infinity) in CD1 mouse at 10 mg/kg, iv administered as single dose by LC/MS/MS analysis; type: ADME, organism-based; design: time infinity, dose 10 mg/kg, route intravenous; conditions: plasma
HCT-116 [21] = test: Induction of cell cycle arrest in human HCT116 cells assessed as accumulation at G2/M phase at 0.005 to 0.5 uM after 24 hrs; type: functional, cell-based
[22] = Oral bioavailability in CD1 mouse at 10 mg/kg administered as single dose by LC/MS/MS analysis; type: ADME, organism-based; conditions: in vivo
[23] = Antiproliferative activity against human 1A9PTX22 cells after 72 hrs by CellTiter-Glo assay; type: functional, cell-based; conditions: 1A9/ptx-22, 72 h
[24] = Intrinsic clearance in human liver microsomes; type: ADME, Microsome
HCT-116 [25] = test: Induction of apoptosis in human HCT116 cells assessed as induction of PARP cleavage at 0.005 to 0.5 uM after 24 hrs; type: functional, cell-based
[26] = Antiproliferative activity against human KU812 cells after 72 hrs by CellTiter-Glo assay; type: functional, cell-based; conditions: KU812, 72 h
[27] = Antiproliferative activity against human KMS11 cells after 72 hrs by CellTiter-Glo assay; type: functional, cell-based; conditions: KMS-11, 72 h

CN1CCN(c2ccc(OC(F)(F)F)c(Nc3ncc4c(n3)-c3c(c(C(N)=O)nn3C)CC4)c2)CC1
IC50 (PANC-1): 0.126 µM
Activity (A2780 [1]): Active
half-life [2]: 1.44 h
IC50 [3]: 0.051 µM
Activity (Mus musculus [4]): 14%
IC50 [5]: 1.44 µM
Activity (Mus musculus [6]): 13%
Activity (Mus musculus [7]): 19%
IC50 [8]: > 10 µM
IC50 [9]: 0.14 µM
clearance [10]: 70.2 mL/min/kg
IC50 [11]: 1.66 µM
Cmax [12]: 290 nM
Vd [13]: 3.39 L/kg
Papp [14]: 50 ×10⁻⁶ cm/s
solubility [15]: > 3200 µg/mL
inhibition in vivo at 60 mg/kg (HCT-116 [16]): 70%
IC50 (A2780 [17]): 0.021 µM
inhibition in vivo at 30 mg/kg (A2780 [18]): 74%
IC50 [19]: 1.52 µM
IC50 (HT-29): 0.008 µM
IC50 (HL-60): 0.016 µM
IC50 (U2OS): 0.095 µM
AUC(0-inf) [20]: 4.97 µM·h
Activity (HCT-116 [21]): Active
bioavailability [22]: 21%
IC50 [23]: 0.038 µM
CLint scaled [24]: 25.7 mL/min/kg
Activity (HCT-116 [25]): Active
IC50 [26]: 0.002 µM
IC50 [27]: 0.014 µM
